Results as given in patent US20100120740A1, “PRODRUGS OF FUSED HETEROCYCLIC INHIBITORS OF D-AMINO ACID OXIDASE” (SEPRACOR INC., priority 2008, published 2010).

Assay: Rate of hydrolysis of test compounds to 4H-furo[3,2-b]pyrrole-5-carboxylic acid in pH 7.4 and 2.0 aqueous solutions
Type: physicochemical
Settings: HPLC; for Hydrolysis rate at pH 7.4: 0.05 M sodium phosphate buffer pH 7.4, 0.013 mg/mL, over 6 hours; for Hydrolysis rate at pH 2.0: water adjusted with phosphoric acid to pH 2.0, 0.013 mg/mL, over 2 hours
Experimental: 10 mM DMSO solutions of test compounds were diluted with a 0.05 M sodium phosphate buffer (pH 7.4) or water adjusted with phosphoric acid to pH 2.0, with a final concentration of 0.013 mg/mL. Samples were analyzed over either 2 or 6 hours, by HPLC. The amount of test compound and the corresponding acid were determined. The rate of conversion of the test compound was calculated based on formation of the corresponding acid and loss of parent.
The rate of hydrolysis of test compounds to 4H-furo[3,2-b]pyrrole-5-carboxylic acid was evaluated in pH 7.4 aqueous solution over 6 hours, and in pH 2.0 aqueous solution over 2 hours, according to General Procedure 15.

SMILES | Hydrolysis rate at pH 7.4 | Hydrolysis rate at pH 2.0
O=C(OCC(=O)N1CCC1)c1cc2occc2[nH]1 [Compound 22a, 2-(azetidin-1-yl)-2-oxoethyl 4H-furo[3,2-b]pyrrole-5-carboxylate] | No hydrolysis | No hydrolysis
O=C(OCCN1CCOCC1)c1cc2occc2[nH]1 [Compound 24, 2-morpholinoethyl 4H-furo[3,2-b]pyrrole-5-carboxylate] | No hydrolysis | No hydrolysis
Cc1oc(=O)oc1COC(=O)c1cc2occc2[nH]1 [Compound 12, (5-methyl-2-oxo-1,3-dioxol-4-yl)methyl 4H-furo[3,2-b]pyrrole-5-carboxylate] | 0.20%/hr | No hydrolysis
CC(OC(=O)c1cc2occc2[nH]1)OC(=O)C(C)C (centres unmarked) [Compound 31b, 1-(isobutyryloxy)ethyl 4H-furo[3,2-b]pyrrole-5-carboxylate] | 3.46%/hr | 
CN(C)C(=O)COC(=O)c1cc2occc2[nH]1 [Compound 20, 2-(dimethylamino)-2-oxoethyl 4H-furo[3,2-b]pyrrole-5-carboxylate] | No hydrolysis | No hydrolysis
O=C(OCC(=O)N1CCOCC1)c1cc2occc2[nH]1 [Compound 21a, 2-morpholino-2-oxoethyl 4H-furo[3,2-b]pyrrole-5-carboxylate] | No hydrolysis | No hydrolysis
O=C(OCC1CCCO1)c1cc2occc2[nH]1 (centres unmarked) [Compound 11, (tetrahydrofuran-2-yl)methyl 4H-furo[3,2-b]pyrrole-5-carboxylate] | No hydrolysis | No hydrolysis
CC(OC(=O)OC1CCCCC1)OC(=O)c1cc2occc2[nH]1 (centres unmarked) [Compound 36b, 1-(cyclohexyloxycarbonyloxy)ethyl 4H-furo[3,2-b]pyrrole-5-carboxylate] | 0.21%/hr | 
